One block for each molecule: values may come before it.
How the values were obtained:
[1] = cited from earlier work
COX-2 [2] = molecular target: T1, COX-2 (Homo sapiens, UniProt P35354); experiment: COX-2 enzyme inhibition (Table 1, relative potency of ocular NSAIDs); format: biochemical; conditions: ratio of IC50 values
T1 sequence (P35354 18-604): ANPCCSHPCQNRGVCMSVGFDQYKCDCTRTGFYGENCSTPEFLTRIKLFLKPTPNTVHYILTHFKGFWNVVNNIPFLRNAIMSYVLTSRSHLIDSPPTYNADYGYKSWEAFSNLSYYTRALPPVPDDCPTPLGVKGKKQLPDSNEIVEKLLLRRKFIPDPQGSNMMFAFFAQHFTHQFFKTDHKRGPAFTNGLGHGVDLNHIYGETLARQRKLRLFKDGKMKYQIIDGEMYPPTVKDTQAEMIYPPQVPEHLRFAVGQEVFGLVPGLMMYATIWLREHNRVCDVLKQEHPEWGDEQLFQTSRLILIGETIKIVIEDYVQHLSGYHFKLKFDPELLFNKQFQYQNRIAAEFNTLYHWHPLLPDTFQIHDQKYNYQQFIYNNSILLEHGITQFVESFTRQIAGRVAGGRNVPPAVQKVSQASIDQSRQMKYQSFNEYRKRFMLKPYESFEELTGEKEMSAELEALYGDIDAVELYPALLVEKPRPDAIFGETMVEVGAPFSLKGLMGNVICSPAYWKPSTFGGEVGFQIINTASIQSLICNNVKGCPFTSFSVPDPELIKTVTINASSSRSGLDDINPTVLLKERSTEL
Excerpt: NSAIDs vary in their relative potency against COX-1 and COX-2. […] Several in vitro assays are used to determine IC50 values, making the values dependent upon the animal model (tissue and stimulus) used in the experiment and variable between laboratories. Thus, it is important that the assay type is defined when making comparisons between IC50 measurements.

COX-2 [3] = molecular target: T1, COX-2; conditions: cited from earlier work
COX-1 = COX-1 (Homo sapiens, UniProt P23219); conditions: cited from earlier work
COX-1, sequence (P23219 24-599): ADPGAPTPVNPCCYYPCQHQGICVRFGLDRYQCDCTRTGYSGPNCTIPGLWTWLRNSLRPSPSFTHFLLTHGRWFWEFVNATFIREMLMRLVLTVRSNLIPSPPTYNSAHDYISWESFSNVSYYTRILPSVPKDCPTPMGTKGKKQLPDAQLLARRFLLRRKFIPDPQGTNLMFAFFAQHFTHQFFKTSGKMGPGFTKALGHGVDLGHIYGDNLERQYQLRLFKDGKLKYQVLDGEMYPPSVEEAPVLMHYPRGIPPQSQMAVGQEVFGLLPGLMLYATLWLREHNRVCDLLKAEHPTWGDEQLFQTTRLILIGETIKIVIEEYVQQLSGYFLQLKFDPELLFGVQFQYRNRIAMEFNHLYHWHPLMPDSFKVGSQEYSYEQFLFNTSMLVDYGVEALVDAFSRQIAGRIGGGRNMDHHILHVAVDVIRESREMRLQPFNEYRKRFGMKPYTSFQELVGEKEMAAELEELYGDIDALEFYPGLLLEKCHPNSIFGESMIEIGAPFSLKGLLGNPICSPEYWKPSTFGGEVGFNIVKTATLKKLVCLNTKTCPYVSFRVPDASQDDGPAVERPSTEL

[4] = eye drops; cited from earlier work
[5] = molecular target: T2, COX-2 purified from rabbit alveolar macrophage (Oryctolagus cuniculus, UniProt O02768); conditions: cited from earlier work
T2 construct: from tissue; host or cells: rabbit alveolar macrophage
T2 sequence (O02768 18-604): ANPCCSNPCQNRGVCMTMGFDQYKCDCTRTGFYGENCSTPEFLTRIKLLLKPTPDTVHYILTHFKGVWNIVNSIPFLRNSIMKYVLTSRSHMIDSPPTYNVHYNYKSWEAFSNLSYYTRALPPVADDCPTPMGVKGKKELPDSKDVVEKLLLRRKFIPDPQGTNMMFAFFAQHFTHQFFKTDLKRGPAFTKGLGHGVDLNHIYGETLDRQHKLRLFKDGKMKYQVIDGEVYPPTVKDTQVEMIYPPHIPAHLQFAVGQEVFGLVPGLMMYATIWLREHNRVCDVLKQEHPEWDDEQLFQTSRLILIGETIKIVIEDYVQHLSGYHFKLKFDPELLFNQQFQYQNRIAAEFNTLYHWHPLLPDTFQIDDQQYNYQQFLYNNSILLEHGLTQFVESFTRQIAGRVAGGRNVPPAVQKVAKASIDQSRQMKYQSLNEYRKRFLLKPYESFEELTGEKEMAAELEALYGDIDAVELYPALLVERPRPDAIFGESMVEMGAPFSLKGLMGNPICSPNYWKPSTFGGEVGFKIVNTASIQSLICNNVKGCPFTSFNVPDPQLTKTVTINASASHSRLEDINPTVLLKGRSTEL

[6] = tested on: choroidal neovascularization (CNV); experiment: Laser photocoagulation-induced choroidal neovascularization in mice; format: in vivo, C57BL/6J mice; conditions: 2 weeks of treatment after laser burn, versus saline, BF 0.1% topical 4 μL four times per day, sVEGFR-1/Fc 250 ng
Method: Methods: Six-week female C57BL/6J mice received laser burns with 514-argon laser at the posterior retina; 19 mice with successful burns were randomly assigned to 1 of 3 treatment groups: BF 0.1%, saline with or without 250 ng sVEGFR-1/Fc immediately after laser burn. Mice were treated with 4 μL of BF 0.1% or saline four times per day for 2 weeks. Then deeply anaesthetized mice were perfused with 50 mg/mL flourescein-labeled dextran, eyes were enucleated and fixed in buffered formalin. Flat mounts of the RPE-choroid-sclera were observed by fluorescence microscope. Total area of hyperfluorescent neovascualature was measured using image-analysis software

human recombinants COX-2 = molecular target: T3, human recombinants COX-2 (Homo sapiens, UniProt P35354); conditions: relative to ketorolac; cited from earlier work
T3 sequence (P35354 18-604): T1 sequence (P35354 18-604)

prostaglandin synthesis = conditions: in vitro, relative to indomethacin; cited from earlier work

Molecule: Lucentis: recombinant humanized IgG1 kappa isotype monoclonal antibody fragment designed for intravitreal use
rate of arterial thromboembolic events ([1]; Lucentis clinical trials): < 4%
serious adverse reactions related to the intravitreal injection procedure ([1]; endophthalmitis, rhegmatogenous retinal detachments, iatrogenic traumatic cataracts): < 0.1 % of injections
time after intravitreal injection at which increases in intraocular pressure were noted ([1]; human, in vivo): ≤ 60 min
other serious ocular adverse reactions ([1]; intraocular inflammation and increased intraocular pressure): < 2 % of patients

Molecule: NC(CO)(CO)CO.O=C(c1ccccc1)c1ccc2n1CCC2C(=O)O (racemic) [ketorolac, (±)-5-benzoyl-2,3-dihydro-1H pyrrolizine-1-carboxylic acid, 2-amino-2-(hydroxymethyl)-1,3-propanediol salt (1:1)]
Ratio COX-1/COX-2 (COX-2 [2]): 0.167
IC50 (COX-2 [3]): 120 nM
IC50 (COX-1): 20 nM

Molecule: Nc1c(CC(=O)[O-])cccc1C(=O)c1ccc(Br)cc1.Nc1c(CC(=O)[O-])cccc1C(=O)c1ccc(Br)cc1.O.O.O.[Na+].[Na+] [bromfenac, sodium 2-amino-3-(4-bromobenzoyl)phenylacetate sesquihydrate]
stability in aqueous solution [4]: stable for a long period of time
inhibitory effect on COX-2, times greater than amfenac ([5]; relative to amfenac): 6.5 times
inhibitory effect on COX-2, times greater than diclofenac ([5]; relative to diclofenac): 3.7 times
IC50 (COX-2 [3]): 23 nM
reduction of area of choroidal neovascularization (CNV lesions) [6]: 71%
inhibitory effect on COX-2, times more potent than ketorolac (human recombinants COX-2): 18 times
inhibition of prostaglandin synthesis, times greater than indomethacin (prostaglandin synthesis): approximately 12 times

Ratio COX-1/COX-2 (COX-2 [2]): 1.67
Molecule: NC(=O)Cc1cccc(C(=O)c2ccccc2)c1N [nepafenac, 2-amino-3-benzoyl-benzeneacetamide]
IC50 (COX-2 [3]): 150 nM
IC50 (COX-1): 250 nM

Source: patent US20110054031A1, “Ophthalmic NSAIDS as Adjuvants” (ISTA Pharmaceuticals, Inc., priority 2008, published 2011)
